Columns and labels:
[1] = tested on: effect of estradiol on the prostate (FRA2 or PR expression); test: Estrogen antagonist effect in the prostate of castrated Noble rats, with and without estradiol, measured by FRA2 or PR expression; assay type: in vivo; settings: three weeks, 3, 10 and 30 mg/kg, with and without estradiol 70 ug/day
[2] = Estrogen antagonist treatment of prostatitis in rats treated with T and E2; assay type: in vivo; settings: 3 weeks T 240 ug/day and E2 70 ug/day, 2 doses of 5 mg/kg on the third week
Description: As prostatitis can be reversed by administering an antiestrogen, the condition is seen to be estrogen dependent.

| Structure (SMILES) | effect of estradiol on the prostate, measured by FRA2 or PR expression [1] | effect on prostatitis compared to the control group treated with T and E2 only [2] |
| --- | --- | --- |
| OCCOCCOc1ccc(/C(=C(/CCCl)c2ccccc2)c2ccccc2)cc1 [fispemifene] | dose dependently inhibited the effect of estradiol on the prostate |  |
| C[C@]12CC[C@@H]3c4ccc(O)cc4C[C@@H](CCCCCCCCC[S+]([O-])CCCC(F)(F)C(F)(F)F)[C@H]3[C@@H]1CC[C@@H]2O (some centres unmarked) [fulvestrant] |  | significantly reduced the prostatitis |

— US7825107B2, “Method of treating men suffering from chronic nonbacterial prostatitis with SERM compounds or aromatase inhibitors” (Hormos Medical Ltd., priority 2006, dated 2010)
